Assay results from ChEMBL document CHEMBL1201862, “PubChem BioAssay data set” (2004).
Active and inactive are the calls of the source.

Experiments:
[1] = inhibitors of firefly luciferase expression or activity, dose response, H4 neuroglioma cells, luminescence (AID 1990); assay type: functional, cell-based
[2] = Luminescence Cell-Based Dose Response HTS to Identify Inhibitors of 5'UTR Stem-Loop Driven Prion Protein mRNA Translation in H4 Neuroglioblastoma Cells. [Related pubchem assays: 1827 (Project Summary), 1813 (Primary HTS)]; assay type: functional
[3] = inhibitors of SNCA 5'UTR-driven reporter translation, confirmation, H4 neuroglioma cells, luminescence (AID 1988); assay type: functional, cell-based
[4] = molecular target: T1, C-C chemokine receptor type 6 (Homo sapiens, UniProt P51684); experiment: CCR6 receptor antagonists, dose response, cell-based, luminescent beta-arrestin readout (AID 504728); assay type: functional
T1 sequence (P51684 whole entry): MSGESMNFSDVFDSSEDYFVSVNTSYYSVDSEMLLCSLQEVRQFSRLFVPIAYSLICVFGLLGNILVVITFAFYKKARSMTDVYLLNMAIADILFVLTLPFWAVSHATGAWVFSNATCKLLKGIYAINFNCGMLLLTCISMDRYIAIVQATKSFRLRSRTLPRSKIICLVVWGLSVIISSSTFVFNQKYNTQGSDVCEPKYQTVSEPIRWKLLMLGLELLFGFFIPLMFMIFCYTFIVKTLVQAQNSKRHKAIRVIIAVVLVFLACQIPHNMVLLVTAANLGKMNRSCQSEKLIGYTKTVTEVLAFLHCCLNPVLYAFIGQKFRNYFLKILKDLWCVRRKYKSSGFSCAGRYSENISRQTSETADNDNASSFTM

[5] = molecular target: Beta-galactosidase (Escherichia coli, UniProt Q8VNN2); experiment: beta-galactosidase enzyme inhibitors and activators, dose response, artefact control for CCR6 antagonist project, biochemical, E. coli enzyme, set 3 (AID 504712); assay type: functional
[6] = molecular target: Protein Rev (Human immunodeficiency virus type 1 group M subtype B (isolate HXB2)(HIV-1), UniProt P04618); experiment: inhibitors of Rev binding to RRE RNA, dose response, biochemical, fluorescence polarization, HIV-1 (AID 434976); set-up: species or system Human immunodeficiency virus 1
[7] = molecular target: Female germline-specific tumor suppressor gld-1 (Caenorhabditis elegans, UniProt Q17339); experiment: inhibitors of GLD-1 binding to TGE RNA, dose response, biochemical, fluorescence polarization, C. elegans (AID 2802);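 further: fluorescence polarization of labeled TGE RNA bound by purified gld-1 protein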
[8] = molecular target: Acyl-homoserine lactone acylase PvdQ (Pseudomonas aeruginosa (strain LESB58), UniProt Q9I194); experiment: P. aeruginosa PvdQ acylase inhibitors, dose response, biochemical, fluorescence, plate reader and imaging, cherry-picks (AID 493231)
[9] = system: Vero; experiment: cytotoxicity of synthesized analogs in Vero cells, SAR follow-up, cytotoxicity control for West Nile virus antiviral project, cell-based, set II (AID 2402); assay type: functional; conditions: Chlorocebus sabaeus
[10] = system: Vero; experiment: Vero E6 cell cytotoxicity, SAR follow-up, cytotoxicity control for West Nile virus antiviral project, synthesized analogs (AID 2244); assay type: functional; conditions: Chlorocebus sabaeus
[11] = A Cell Based Assay for the Identification of Probe candidate Compounds with Anti- Venezuelan Equine Encephalitis virus. [Related pubchem assays: 2409, 2419, 1621, 2238, 2405, 2024, 2065, 2402, 2414, 1635, 1650, 2244 ]; assay type: functional
[12] = molecular target: Lysosomal acid glucosylceramidase (Homo sapiens, UniProt P04062); experiment: Dose response cell-based high throughput screening assay to identify enhancers of beta-glucosidase activity. [Related pubchem assays: 784 ]; assay type: functional
[13] = molecular target: T2, Bcl-2-like protein 10 (Homo sapiens, UniProt Q9HD36); experiment: Biochemical TR3 FP assay of Bcl-B inhibitor potency, EC50 (AID 1243); assay type: functional
T2 sequence (Q9HD36 whole entry): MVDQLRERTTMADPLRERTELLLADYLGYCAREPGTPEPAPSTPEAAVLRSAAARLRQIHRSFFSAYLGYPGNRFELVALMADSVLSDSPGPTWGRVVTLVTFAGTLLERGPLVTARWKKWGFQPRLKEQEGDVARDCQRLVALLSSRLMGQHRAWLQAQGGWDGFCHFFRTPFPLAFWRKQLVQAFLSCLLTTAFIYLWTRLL

In the case of `COc1ccc(N2C(=O)/C(=C\NNc3nc(C)cc(C)n3)c3ccccc3C2=O)cc1OC`, the EC50 [1] is reported as 11.8 µM (active), the EC50 [2] is reported as 11.8 µM (active) and the EC50 [3] is reported as 9.51 µM (active). The IC50 [4] was 0.594 µM (active) and the IC50 [5] was > 66.6 µM (inactive).
For `COc1ccc(NC(=O)c2ccc(-c3ccc(C(C)=O)cc3)o2)cn1`, the IC50 [6] was 16.4 µM (not active) and the IC50 [7] was 9.1 µM (active).
With `CCCCCC1CC(COc2ccccc2)OC1=O` (stereo not drawn) the AC50 [8] was 6.27 µM (active).
In the case of `CCCCN(C(=O)c1ccccc1Cl)c1nc(-c2ccc(OC)cc2)cs1`, the CC50 [9] is reported as > 100 µM (active), the CC50 [10] is reported as > 40 µM (active) and the IC50 [11] is reported as > 66.6 µM (active).
For `O=C1Nc2ccccc2C(O)(C(=O)NC2CC2)N1c1ccc(Cl)c(Cl)c1` (stereo not drawn), the EC50 [12] was > 50 µM (not active).
With `O=C(O)C1Nc2ccc3ccccc3c2C2C=CCC12` (stereo not drawn) the EC50 [13] was 7.15 µM (active).
